Measured values from US20230159445A1, “STAT INHIBITORY COMPOUNDS AND COMPOSITIONS” (JANPIX LIMITED, priority 2020, published 2023).

system: MV4-11 cells; assay: MV4-11 Cell Cytotoxicity Assay (CellTiter-Blue, 72 h); format: cell-based, human; details: Homo sapiens, MV4-11; MV-4-11 cells
Method: In some embodiments, the potency of the STAT5 inhibitors are evaluated by an in vitro assay such as MV4-11 Cell Cytotoxicity Assay. […] 10,000 cells were plated per well in 96-well flat-bottom sterile culture plates with low-evaporation lids. After 24 h, inhibitors and a vehicle control (0.5% DMSO) were added and the cells were incubated for 72 h at 37° C. in 5% CO2. Inhibitors were examined in triplicate at a maximal concentration of 50 μM, followed by 1:2 dilutions in subsequent wells (25, 12.5, 6.25, 3.125, 1.5625, 0.78125, 0.390625, 0.195313 and 0.097656 μM). After 72 h, the wells were treated with CellTiter-Blue® (20 μL/well), and the plates were incubated using standard cell culture conditions for 1 hour. Fluorescence was measured at 560/590 nm.

SMILES	IC50
CN(C)CCOc1cc(C(=O)O)ccc1N(Cc1cc(C2CC2)cc(C(C)(C)C)c1)C(=O)CN(Cc1ccccc1F)S(=O)(=O)c1c(F)c(F)c(F)c(F)c1F [Compound 1101, 4-(N-(3-(tert-butyl)-5-cyclopropylbenzyl)-2-(N-(2-fluorobenzyl)-(2,3,4,5,6-pentafluoro-phenyl)sulfonamido)taceamido)-3-(2-(dimethylamino)ethoxy) benzoic acid]	3160 to 100000 nM
CN(C)c1cc(C(=O)O)ccc1N(Cc1cc(C2CC2)cc(C(C)(C)C)c1)C(=O)CN(Cc1c(F)c(F)c(F)c(F)c1F)S(=O)(=O)c1c(F)c(F)c(F)c(F)c1F [Compound 1106, 4-(N-(3-(tert-butyl)-5-cyclopropylbenzyl)-2-(N-((perfluorophenyl)methyl)-(2,3,4,5,6-pentafluorophenyl)sulfonamido)acetamido)-3-(dimethylamino)benzoic acid]	0.01 to 316 nM
CN(C)c1cc(C(=O)O)c(F)cc1N(Cc1cc(C2CC2)cc(C(C)(C)C)c1)C(=O)CN(Cc1c(F)c(F)c(F)c(F)c1F)S(=O)(=O)c1c(F)c(F)c(F)c(F)c1F [Compound 1107, 4-(N-(3-(tert-butyl)-5-cyclopropylbenzyl)-2-(N-((perfluorophenyl)methyl)-(2,3,4,5,6-pentafluoro-phenyl)sulfonamido)acetamido)-5-(dimethylamino)-2-fluorobenzoic acid]	0.01 to 316 nM
CC(C)(C)c1cc(CN(C(=O)CN(Cc2ccccc2C(F)(F)F)S(=O)(=O)c2c(F)c(F)c(F)c(F)c2F)c2ccc(C(=O)O)cc2C2CC2)cc(C2CC2)c1 [Compound 1112, 4-(N-(3-(tert-butyl)-5-cyclopropylbenzyl)-2-(N-(2-(trifluoromethyl)benzyl)-(2,3,4,5,6-pentafluoro-phenyl)sulfonamido)acetamido)-3-cyclopropylbenzoic acid]	0.01 to 316 nM
CN(C)c1cc(C(=O)O)c(F)cc1N(Cc1cc(C2CC2)cc(C(C)(C)C)c1)C(=O)CN(Cc1ccccc1C(F)(F)F)S(=O)(=O)c1c(F)c(F)c(F)c(F)c1F [Compound 1113, 4-(N-(3-(tert-butyl)-5-cyclopropylbenzyl)-2-(N-(2-(trifluoromethyl)benzyl)-(2,3,4,5,6-pentafluoro-phenyl)sulfonamido)acetamido)-5-(dimethylamino)-2-fluorobenzoic acid]	316 to 1000 nM
COc1cc(C(N)=O)ccc1N(Cc1cc(C2CC2)cc(C(C)(C)C)c1)C(=O)CN(Cc1ccccc1F)S(=O)(=O)c1c(F)c(F)c(F)c(F)c1F [Compound 1114, 4-(N-(3-(tert-butyl)-5-cyclopropylbenzyl)-2-(N-(2-fluorobenzyl)-(2,3,4,5,6-pentafluoro-phenyl)sulfonamido)acetamido)-3-methoxybenzamide]	316 to 1000 nM
CN(C)c1ccc(C(=O)O)cc1N(Cc1cc(C2CC2)cc(C(C)(C)C)c1)C(=O)CN(Cc1ccccc1F)S(=O)(=O)c1c(F)c(F)c(F)c(F)c1F [Compound 1120, 3-(N-(3-(tert-butyl)-5-cyclopropylbenzyl)-2-(N-(2-fluorobenzyl)-(2,3,4,5,6-pentafluoro-phenyl)sulfonamido)acetamido)-4-(dimethylamino) benzoic acid]	316 to 1000 nM
CN(C)c1cc(C(=O)O)ccc1N(Cc1cc(C2CC2)cc(C(C)(C)C)c1)C(=O)CN(Cc1c(F)cc(F)cc1F)S(=O)(=O)c1c(F)c(F)c(F)c(F)c1F [Compound 1125, 4-(N-(3-(tert-butyl)-5 - cyclopropylbenzyl)-2-(N-(2,4,6-trifluorobenzyl)-(2,3,4,5,6-pentafluoro-phenyl)sulfonamido)acetamido)-3-(dimethylamino) benzoic acid]	316 to 1000 nM
O=C(O)c1ccc(N(Cc2ccccn2)C(=O)CN(Cc2ccccc2C(F)(F)F)S(=O)(=O)c2c(F)c(F)c(F)c(F)c2F)c(OC2CC2)c1 [Compound 1127, 3-cyclopropoxy-4-(2-(N-(2-(trifluoromethyl)benzyl)-(2,3,4,5,6-pentafluoro-phenyl)sulfonamido)-N-(pyridin-2-ylmethyl)acetamido) benzoic acid]	1000 to 3160 nM
COc1cc(C(=O)O)ccc1N(Cc1cc(C2CC2)cc(C(C)(C)C)c1)C(=O)CN(Cc1cncc(C(F)(F)F)c1)S(=O)(=O)c1c(F)c(F)c(F)c(F)c1F [Compound 1131, 4-(N-(3-(tert-butyl)-5-cyclopropylbenzyl)-2-(N-((5-(trifluoromethyl)pyridin-3-yl)methyl)-(2,3,4,5,6-pentafluoro-phenyl)sulfonamido)acetamido)-3-methoxybenzoic acid]	316 to 1000 nM
CC(C)(C)c1cc(CN(C(=O)CN(Cc2cccc(C(F)(F)F)c2)S(=O)(=O)c2c(F)c(F)c(F)c(F)c2F)c2ccc(C(=O)O)cc2OC2CC2)cc(C2CC2)c1 [Compound 1135, 4-(N-(3-(tert-butyl)-5-cyclopropylbenzyl)-2-(N-(3-(trifluoromethyl)benzyl)-(2,3,4,5,6-pentafluoro-phenyl)sulfonamido)acetamido)-3-cyclopropoxybenzoic acid]	316 to 1000 nM
O=C(O)c1ccc(N(Cc2cccnn2)C(=O)CN(Cc2ccccc2C(F)(F)F)S(=O)(=O)c2c(F)c(F)c(F)c(F)c2F)c(OC2CC2)c1 [Compound 1138, 3-cyclopropoxy-4-(2-(N-(2-(trifluoromethyl)benzyl)-(2,3,4,5,6-pentafluoro-phenyl)sulfonamido)-N-(pyridazin-3-ylmethyl)acetamido) benzoic acid]	3160 to 100000 nM
CC(C)(C)c1cc(CN(C(=O)CN(Cc2cccc(C#N)c2)S(=O)(=O)c2c(F)c(F)c(F)c(F)c2F)c2ccc(C(=O)O)cc2OC2CC2)cc(C2CC2)c1 [Compound 1139, 4-(N-(3-(tert-butyl)-5-cyclopropylbenzyl)-2-(N-(3-cyanobenzyl)-(2,3,4,5,6-pentafluorophenyl)sulfon-amido)acetamido)-3-cyclopropoxybenzoic acid]	316 to 1000 nM
CC(C)(C)c1cc(CN(C(=O)CN(Cc2ccc(C#N)cc2)S(=O)(=O)c2c(F)c(F)c(F)c(F)c2F)c2ccc(C(=O)O)cc2OC2CC2)cc(C2CC2)c1 [Compound 1140, 4-(N-(3-(tert-butyl)-5-cyclopropylbenzyl)-2-(N-(4-cyanobenzyl)-(2,3,4,5,6-pentafluorophenyl)sulfon-amido)acetamido)-3-cyclopropoxybenzoic acid]	316 to 1000 nM
COc1cc(C(=O)O)ccc1N(Cc1cccc(C(C)(C)C)c1)C(=O)CN(C12CC(C1)C2)S(=O)(=O)c1c(F)c(F)c(F)c(F)c1F [Compound 1144, 4-(2-(N-(bicyclo[1.1.1]pentan-1-yl)-(2,3,4,5,6-pentafluorophenyl)sulfon-amido)-N-(3-(tert-butyl)benzyl)acetamido)-3-methoxybenzoic acid]	316 to 1000 nM
CC(C)(C)c1cc(CN(C(=O)CN(Cc2ccccc2F)S(=O)(=O)c2c(F)c(F)c(F)c(F)c2F)c2ccc(C#N)c(F)c2)cc(C2CC2)c1 [Compound 1151, N-(3-(tert-butyl)-5-cyclopropylbenzyl)-N-(4-cyano-3-fluorophenyl)-2-(N-(2-fluorobenzyl)-(2,3,4,5,6-pentafluoro-phenyl)sulfonamido) acetamide]	3160 to 100000 nM
COc1cc(C(=O)O)ccc1N(Cc1nc2ccccc2n1C)C(=O)CN(Cc1cnccc1C(F)(F)F)S(=O)(=O)c1c(F)c(F)c(F)c(F)c1F [Compound 1158, 3-methoxy-4-(N-((1-methyl-1H-benzo[d]imidazol-2-yl)methyl)-2-(N-((4-(trifluoromethyl)pyridin-3-yl)methyl)-(2,3,4,5,6-pentafluoro-phenyl)sulfonamido)acetamido)benzoic acid]	3160 to 100000 nM
